We go through 1 compound from patent US20260284051A1, “METHIONINE ADENOSYLTRANSFERASE 2A (MAT2A) INHIBITOR COMBINATIONS AND USES THEREOF” (INSILICO MEDICINE IP LIMITED, priority 2023, published 2026).

For this assay, the system named is NCI-H838 MTAP null xenografts. The experiment in a line: Efficacy study of NCI-H838 human lung cancer xenograft model in NOD SCID mice. The assay is classed as in vivo. The note with it: for Tumor volume (mm^3) Final (mean): Mean ± SD. From the text: Efficacy Study of NCI-H838 Human Lung Cancer Xenograft Model in NOD SCID Mice Methods:
The NCI-H838 cancer cells were maintained in vitro with RPMI-1640 medium supplemented with 10% fetal bovine serum at 37TC in an atmosphere of 5% CO2 in the air. The cells in exponential growth phase were harvested and quantitated by cell counter before tumor inoculation.
NOD SCID mice, female, 6-8 weeks, weighing approximately 20-22 g, All the mice were purchased from Shanghai Lingchang Bio-Tech Co., Ltd.
Each mouse was inoculated subcutaneously at the right flank with NCI-H838 cells in a 0.1 mL of PBS mixed with Matrigel (1:1) for tumor development (5×10^6 cells/mouse). Dosing was started when the average tumor size reached approximately ~150 mm^3 for the tumor efficacy study with tool and med chem molecules to look for efficacy vs vehicle tumor growth.
Mean tumor volume at dosing start was approximately 146.51 mm^3, with six mice randomized to each treatment group. In the NCI-H838 MTAP null tumor model, mice were dosed orally, once per day (QD) with vehicle, once per day (QD) with Compound 1 at 3, 10 mg/kg, mice were intravenous, once per day (QD) with PRMT5 inhibitor MRTX1719 at 50 mg/kg, or Compound 1 combined with MRTX1719 at each dose level.

[1] abbreviates: combination: Compound 1 3 mg/kg QD + MRTX1719 50 mg/kg QD.
[2] abbreviates: combination: Compound 1 10 mg/kg QD + MRTX1719 50 mg/kg QD.

In the case of `C#CCNc1nc(=O)n(-c2cccnc2C)c2cc(C(F)(F)F)cc(OC)c12` [Example 36, 5-methoxy-1-(2-methylpyridin-3-yl)-4-(prop-2-yn-1-ylamino)-7-(trifluoromethyl)quinazolin-2(1H)-one], the “TGI (%)” value runs as follows: (Compound 1 3 mg/kg orally QD) 1.6%; (Compound 1 10 mg/kg orally QD) 19.9%; under setting [1], 83.2%; under setting [2], 103.1%. The “Tumor volume (mm^3) Final (mean)” value runs as follows: (Compound 1 3 mg/kg orally QD) 2029 ± 239 mm^3; (Compound 1 10 mg/kg orally QD) 1678 ± 113 mm^3; under setting [1], 468 ± 115 mm^3; under setting [2], 88 ± 7 mm^3. The “effect on tumor growth (in words)” value (combination of Compound 1 (3, 10 mg/kg) and MRTX1719 50 mg/kg) is given as “significantly inhibited tumor growth”. Also, the synergy effect turned out to be 1.02 (combination: Compound 1 3 mg/kg + MRTX1719 50 mg/kg) and 1.21 (combination: Compound 1 10 mg/kg + MRTX1719 50 mg/kg).
